From PubChem BioAssay AID330 (DTP/NCI, 2004)
Where “and” joins values, the source holds several entries; their conditions need not be identical. Equal values may be shown once. Toxic doses and inconclusive results are not listed. Rule for the calls: active = survival T/C of 150% or more; inactive = T/C below 125% in these data. Peptide text beside a SMILES is read from it. * marks the point of attachment. Cbz = O=C(OCc1ccccc1)*

Tested on: P388 leukemia ip, CD2F1 mice, survival T/C
Experiment: NCI In Vivo Anticancer Drug Screen. Data for tumor model P388 Leukemia (intraperitoneal) in CD2F1 (CDF1) mice
Conditions: endpoint: median survival time, higher = longer survival
In short: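 Mice carrying the transplanted tumor received test compound or vehicle. Survival was recorded in each group, and the value is the treated-group measurement divided by that of the vehicle-treated control group.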

[1] = dose: 60.0 mg/kg/injection, schedule: Q01DX005 (ip), vehicle: saline with Tween-80
[2] = dose: 50.0 mg/kg/injection, schedule: Q01DX009 (ip), vehicle: saline
[3] = dose: 100.0 mg/kg/injection, schedule: Q01DX009 (ip), vehicle: saline
[4] = dose: 200.0 mg/kg/injection, schedule: Q01DX009 (ip), vehicle: saline
[5] = dose: 50.0 mg/kg/injection, schedule: Q01DX005 (ip), vehicle: saline with Tween-80
[6] = dose: 100.0 mg/kg/injection, schedule: Q01DX005 (ip), vehicle: saline with Tween-80
[7] = dose: 200.0 mg/kg/injection, schedule: Q01DX005 (ip), vehicle: saline with Tween-80
[8] = dose: 100.0 mg/kg/injection, schedule: Q01DX009 (ip), vehicle: saline with Tween-80
[9] = dose: 200.0 mg/kg/injection, schedule: Q01DX009 (ip), vehicle: saline with Tween-80
[10] = dose: 100.0 mg/kg/injection, schedule: Q04DX003 (ip), vehicle: saline with Tween-80
[11] = dose: 200.0 mg/kg/injection, schedule: Q04DX003 (ip), vehicle: saline with Tween-80
[12] = dose: 400.0 mg/kg/injection, schedule: Q04DX003 (ip), vehicle: saline with Tween-80

Measured: T/C

Cc1ccc(/C=C2/C(=O)N(c3ccccc3)N=C2c2ccccc2)cc1
inactive: dose: 1.87 mg/kg/injection, schedule: Q01DX005 (ip), vehicle: saline with Tween-80 110 % of control | dose: 3.75 mg/kg/injection, schedule: Q01DX005 (ip), vehicle: saline with Tween-80 113 % of control | dose: 3.75 mg/kg/injection, schedule: Q01DX005 (ip), vehicle: saline 95 % of control | dose: 7.5 mg/kg/injection, schedule: Q01DX005 (ip), vehicle: saline with Tween-80 113 % of control | dose: 15.0 mg/kg/injection, schedule: Q01DX005 (ip), vehicle: saline with Tween-80 110 % of control | dose: 15.0 mg/kg/injection, schedule: Q01DX005 (ip), vehicle: saline 100 % of control | dose: 30.0 mg/kg/injection, schedule: Q01DX005 (ip), vehicle: saline with Tween-80 109 % of control | [1] 108 % of control

CCCCCCCCCCCCCC[N+]1(CC)CCCCCC1
inactive: dose: 0.04 mg/kg/injection, schedule: Q01DX009 (ip), vehicle: saline 100 % of control and 96 % of control

C=C(C)COc1ccc(C)cc1Br
inactive: dose: 50.0 mg/kg/injection, schedule: Q01DX005 (ip), vehicle: Klucel (hydroxypropylcellulose) (HPC) 101 % of control | dose: 100.0 mg/kg/injection, schedule: Q01DX005 (ip), vehicle: Klucel (hydroxypropylcellulose) (HPC) 103 % of control | dose: 200.0 mg/kg/injection, schedule: Q01DX005 (ip), vehicle: Klucel (hydroxypropylcellulose) (HPC) 113 % of control

CC(Nc1cccc(Cl)c1)S(=O)(=O)O (centres undefined)
inactive: [2] 100 % of control | [3] 100 % of control | [4] 94 % of control

NC(=O)C(Cc1ccccc1)NC(=O)C(Cc1ccccc1)NC(=O)C(Cc1ccccc1)NC(=O)OCc1ccccc1 (stereo not drawn) (Cbz-Phe-Phe-Phe-NH2; configuration not given here)
inactive: [5] 91 % of control | [6] 97 % of control | [7] 102 % of control

CCOc1nc(N)nc(C)c1N=Nc1ccc(Cl)cc1
inactive: dose: 60.0 mg/kg/injection, schedule: Q01DX005 (ip), vehicle: Klucel + Tween-80 100 % of control | dose: 120.0 mg/kg/injection, schedule: Q01DX005 (ip), vehicle: Klucel + Tween-80 101 % of control

Nc1nc(-c2cc(-c3ccco3)nc(N)n2)cc(-c2ccco2)n1
inactive: dose: 60.0 mg/kg/injection, schedule: Q01DX005 (ip), vehicle: saline 103 % of control | dose: 120.0 mg/kg/injection, schedule: Q01DX005 (ip), vehicle: saline 103 % of control | dose: 240.0 mg/kg/injection, schedule: Q01DX005 (ip), vehicle: saline 101 % of control

c1cc2ccc1CCc1ccc(cc1)CC2
inactive: dose: 100.0 mg/kg/injection, schedule: Q01DX001 (ip), vehicle: saline sonified 90 % of control | dose: 200.0 mg/kg/injection, schedule: Q01DX001 (ip), vehicle: saline sonified 100 % of control | dose: 400.0 mg/kg/injection, schedule: Q01DX001 (ip), vehicle: saline sonified 100 % of control

CC(=O)Oc1c(C)c(C)c2c(c1C)C(I)CC(C)(CCC(C)CCC(C)CCC(C)C)O2 (centres undefined)
inactive: dose: 12.5 mg/kg/injection, schedule: Q01DX009 (ip), vehicle: saline + Tween-80 + alcohol 103 % of control | dose: 25.0 mg/kg/injection, schedule: Q01DX009 (ip), vehicle: saline + Tween-80 + alcohol 113 % of control | dose: 50.0 mg/kg/injection, schedule: Q01DX009 (ip), vehicle: saline + Tween-80 + alcohol 107 % of control | dose: 100.0 mg/kg/injection, schedule: Q01DX009 (ip), vehicle: saline + Tween-80 + alcohol 106 % of control | dose: 200.0 mg/kg/injection, schedule: Q01DX009 (ip), vehicle: saline + Tween-80 + alcohol 119 % of control | dose: 400.0 mg/kg/injection, schedule: Q01DX009 (ip), vehicle: saline + Tween-80 + alcohol 87 % of control

CCOC(=O)N1CC2C=CC1C(C(C)=O)C2 (centres undefined)
inactive: [2] 110 % of control | [3] 109 % of control | [4] 109 % of control

[N-]=[N+]=Nc1ccc2nc(N)nc(N)c2c1
inactive: dose: 100.0 mg/kg/injection, schedule: Q01DX001 (ip), vehicle: Klucel (hydroxypropylcellulose) (HPC) 99 % of control | dose: 200.0 mg/kg/injection, schedule: Q01DX001 (ip), vehicle: Klucel (hydroxypropylcellulose) (HPC) 100 % of control

CC/C(=C(/CC)c1ccc(O)cc1)c1ccc(O)cc1
inactive: dose: 50.0 mg/kg/injection, schedule: Q01DX008 (ip), vehicle: saline with Tween-80 101 % of control | dose: 100.0 mg/kg/injection, schedule: Q01DX008 (ip), vehicle: saline with Tween-80 97 % of control | dose: 200.0 mg/kg/injection, schedule: Q01DX008 (ip), vehicle: saline with Tween-80 106 % of control | dose: 400.0 mg/kg/injection, schedule: Q01DX008 (ip), vehicle: saline with Tween-80 99 % of control

c1ccc2c(c1)C1OC2c2c1ccc1ccccc21 (centres undefined)
inactive: [5] 97 % of control | [6] 90 % of control | [7] 88 % of control

CCC(C)(OC(C)=O)C(=O)OC1C(=O)OC2CC3C(C)=CC(O)C(O)C3(C)C3C4(O)OCC23C1C(C)C4O (centres undefined)
inactive: dose: 0.25 mg/kg/injection, schedule: Q01DX009 (ip), vehicle: saline + alcohol 103 % of control | dose: 0.5 mg/kg/injection, schedule: Q01DX009 (ip), vehicle: saline + alcohol 96 % of control | dose: 1.0 mg/kg/injection, schedule: Q01DX009 (ip), vehicle: saline + alcohol 96 % of control | dose: 2.0 mg/kg/injection, schedule: Q01DX009 (ip), vehicle: saline + alcohol 96 % of control | dose: 4.0 mg/kg/injection, schedule: Q01DX009 (ip), vehicle: saline + alcohol 99 % of control

CC(C)CCCC(C)C1CCC2C3CCC4N(CCCl)CCCC4(C)C3CCC12C (centres undefined)
inactive: dose: 25.0 mg/kg/injection, schedule: Q01DX001 (ip), vehicle: saline 100 % of control | dose: 50.0 mg/kg/injection, schedule: Q01DX001 (ip), vehicle: saline 99 % of control | dose: 100.0 mg/kg/injection, schedule: Q01DX001 (ip), vehicle: saline 94 % of control

O=S(=O)(O)Cc1ccc(CS(=O)(=O)O)cc1
inactive: dose: 12.5 mg/kg/injection, schedule: Q04DX002 (ip), vehicle: saline 93 % of control | dose: 25.0 mg/kg/injection, schedule: Q04DX002 (ip), vehicle: saline 102 % of control | dose: 50.0 mg/kg/injection, schedule: Q04DX002 (ip), vehicle: saline 98 % of control

Cc1cc(O)c(NCCN(C)C)c2c(=O)c3ccccc3sc12
inactive: dose: 50.0 mg/kg/injection, schedule: Q01DX009 (ip), vehicle: saline with Tween-80 100 % of control | [8] 101 % of control | [9] 100 % of control

Nc1nc(SC2CCCCC2)c2[nH]cnc2n1
inactive: [8] 90 % of control | [10] 100 % of control | [9] 95 % of control | [11] 116 % of control | dose: 400.0 mg/kg/injection, schedule: Q01DX009 (ip), vehicle: saline with Tween-80 90 % of control | [12] 108 % of control

O=C(OCCO)c1ccccc1O
inactive: [10] 95 % of control | [11] 104 % of control | [12] 95 % of control

O=C1C2C3C=CC(O3)C2C(=O)N1N=C1CCCCC1 (centres undefined)
inactive: [5] 99 % of control | [6] 101 % of control | [7] 101 % of control

Cc1ccccc1N1CC2CC3C=CC2(C1)O3 (centres undefined)
inactive: [1] 104 % of control | dose: 120.0 mg/kg/injection, schedule: Q01DX005 (ip), vehicle: saline with Tween-80 97 % of control | dose: 240.0 mg/kg/injection, schedule: Q01DX005 (ip), vehicle: saline with Tween-80 97 % of control

O=C(Nc1ccc(Br)cn1)c1sc2ccccc2c1Cl
inactive: dose: 6.25 mg/kg/injection, schedule: Q01DX009 (ip), vehicle: saline with Tween-80 99 % of control | dose: 12.5 mg/kg/injection, schedule: Q01DX009 (ip), vehicle: saline with Tween-80 98 % of control | dose: 25.0 mg/kg/injection, schedule: Q01DX009 (ip), vehicle: saline with Tween-80 99 % of control | [8] 92 % of control | [9] 87 % of control

CN1Cc2cc(Cl)ccc2N(C)Cc2cc(Cl)ccc21
inactive: [5] 101 % of control | [6] 90 % of control | [7] 92 % of control

c1cncc(-c2cc(-c3cc(-c4cccnc4)n[nH]3)[nH]n2)c1
inactive: dose: 60.0 mg/kg/injection, schedule: Q01DX005 (ip), vehicle: Klucel (hydroxypropylcellulose) (HPC) 103 % of control | dose: 120.0 mg/kg/injection, schedule: Q01DX005 (ip), vehicle: Klucel (hydroxypropylcellulose) (HPC) 103 % of control | dose: 240.0 mg/kg/injection, schedule: Q01DX005 (ip), vehicle: Klucel (hydroxypropylcellulose) (HPC) 91 % of control
